# Patent US8759333B2, “Di-azetidinyl diamide as monoacylglycerol lipase inhibitors” (Janssen Pharmaceutica, NV, priority 2010, dated 2014)
# Target: T1, mutant MGL (mut-MGLL 11-313 L179S L186S) (Homo sapiens, UniProt Q99685, L169S/L176S)
# T1 construct: purified mutant MGL (mut-MGLL 11-313 L179S L186S)
# T1 sequence (Q99685 1-303 L169S/L176S): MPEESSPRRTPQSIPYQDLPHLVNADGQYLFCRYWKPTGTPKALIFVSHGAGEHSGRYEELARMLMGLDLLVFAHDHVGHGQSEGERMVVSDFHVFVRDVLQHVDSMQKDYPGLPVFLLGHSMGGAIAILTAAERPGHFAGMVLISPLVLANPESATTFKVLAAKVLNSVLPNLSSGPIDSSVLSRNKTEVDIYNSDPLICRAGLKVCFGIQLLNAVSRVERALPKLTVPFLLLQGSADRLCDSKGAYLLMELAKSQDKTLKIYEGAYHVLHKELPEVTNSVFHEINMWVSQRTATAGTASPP
# Assay: MGL Enzyme Activity Assay, purified mutant MGL, 4MU-B substrate
# Type: biochemical
# Conditions: mutant MGL 5 nM, 4MU-B 10 μM, 37° C.; read-out: MGL mutant inh IC50
# Procedure: All rate-based assays were performed in black 384-well polypropylene PCR microplates (Abgene) in a total volume of 30 μL. Substrate 4-methylumbelliferyl butyrate (4MU-B; Sigma) and either purified mutant MGL (mut-MGLL 11-313 L179S L186S) or purified wild type MGL (wt-MGLL 6H-11-313) were diluted separately into 20 mM PIPES buffer (pH=7.0), containing 150 mM NaCl and 0.001% Tween 20. Compounds of Formula (I), including Formulas I(a), I(b), and I(c), were pre-dispensed (50 nL) into the assay plate using a Cartesian Hummingbird prior to adding 4MU-B (25 μL of 1.2× solution to a final concentration of 10 μM) followed by enzyme (5 μL of a 6× solution to a final concentration of 5 nM) to initiate the reaction. Final compound concentrations ranged from 17 to 0.0003 μM. The fluorescence change due to 4MU-B cleavage was monitored with excitation and emission wavelengths of 335 and 440 nm, respectively, and a bandwidth of 10 nm (Safire^2, Tecan) at 37° C. for 5 min.
# The IC50 values for the following compounds were determined using Microsoft Office Excel from a fit of the equation to the concentration-response plot of the fractional activity as a function of inhibitor concentration.
row,Compound,IC50 [nM]
1,"O=C(NC1CN(C2CN(C(=O)c3ccc4nc(-c5ccccc5)sc4c3)C2)C1)c1cscn1 [Cpd 22, N-{1′-[(2-Phenyl-1,3-benzothiazol-6-yl)carbonyl]-1,3′-biazetidin-3-yl}-1,3-thiazole-4-carboxamide]",86
2,"O=C(NC1CN(C2CN(C(=O)c3ccc4c(-c5ccccc5)cccc4c3)C2)C1)c1ccccc1 [Cpd 25, N-{1′-[(5-Phenylnaphthalen-2-yl)carbonyl]-1,3′-biazetidin-3-yl}benzamide]",154
3,"O=C(NC1CN(C2CN(C(=O)c3ccc(-c4ccccc4)cc3)C2)C1)c1nccs1 [Cpd 29, N-[1′-(Biphenyl-4-ylcarbonyl)-1,3′-biazetidin-3-yl]-1,3-thiazole-2-carboxamide]",184
4,"O=C(NC1CN(C2CN(C(=O)c3ccc4nc(-c5ccc(C(F)(F)F)cc5)oc4c3)C2)C1)c1nccs1 [Cpd 30, N-[1′-({2-[4-(Trifluoromethyl)phenyl]-1,3-benzoxazol-6-yl}carbonyl)-1,3′-biazetidin-3-yl]-1,3-thiazole-2-carboxamide]",264
5,"O=C(NC1CN(C2CN(C(=O)c3ccc4cc(-c5ccccc5)ccc4c3)C2)C1)c1ccccc1 [Cpd 34, N-{1′-[(6-Phenylnaphthalen-2-yl)carbonyl]-1,3′-biazetidin-3-yl}benzamide]",332
6,"O=C(NC1CN(C2CN(C(=O)c3ccc4oc(-c5ccccc5)nc4c3)C2)C1)c1nccs1 [Cpd 35, N-{1′-[(2-Phenyl-1,3-benzoxazol-5-yl)carbonyl]-1,3′-biazetidin-3-yl}-1,3-thiazole-2-carboxamide]",341
7,"Cc1c(C(=O)N2CC(N3CC(NC(=O)c4ccccc4)C3)C2)sc2ccc(Cl)cc12 [Cpd 36, N-{1′-[(5-Chloro-3-methyl-1-benzothiophen-2-yl)carbonyl]-1,3′-biazetidin-3-yl}benzamide]",458
8,"O=C(c1ccccc1)c1ccc(C(=O)N2CC(N3CC(NC(=O)c4nccs4)C3)C2)cc1 [Cpd 38, N-(1′-{[4-(Phenylcarbonyl)phenyl]carbonyl}-1,3′-biazetidin-3-yl)-1,3-thiazole-2-carboxamide]",588
9,"O=C(NC1CN(C2CN(C(=O)c3ccc4cc(Br)ccc4c3)C2)C1)c1nccs1 [Cpd 40, N-{1′-[(6-Bromonaphthalen-2-yl)carbonyl]-1,3′-biazetidin-3-yl}-1,3-thiazole-2-carboxamide]",882

# Next, values leading:
row,IC50 [nM],Compound
1,8,"O=C(NC1CN(C2CN(C(=O)c3cc4ccc(-c5ccccc5)cc4s3)C2)C1)c1nccs1 [Cpd 6, N-{1′-[(6-Phenyl-1-benzothiophen-2-yl)carbonyl]-1,3′-biazetidin-3-yl}-1,3-thiazole-2-carboxamide]"
2,157,"O=C(NC1CN(C2CN(C(=O)c3ccc(Cc4ccc(C(F)(F)F)cc4)cc3)C2)C1)c1ccccc1 [Cpd 26, N-[1′-({4-[4-(Trifluoromethyl)benzyl]phenyl}carbonyl)-1,3′-biazetidin-3-yl]benzamide]"
3,180,"O=C(NC1CN(C2CN(C(=O)c3ccc4nc(-c5cccc(C(F)(F)F)c5)oc4c3)C2)C1)c1nccs1 [Cpd 28, N-[1′-({2-[3-(Trifluoromethyl)phenyl]-1,3-benzoxazol-6-yl}carbonyl)-1,3′-biazetidin-3-yl]-1,3-thiazole-2-carboxamide]"
4,287,"O=C(NC1CN(C2CN(C(=O)c3ccc(Oc4ccccc4)cc3)C2)C1)c1nccs1 [Cpd 32, N-{1′-[(4-Phenoxyphenyl)carbonyl]-1,3′-biazetidin-3-yl}-1,3-thiazole-2-carboxamide]"
5,303,"O=C(NC1CN(C2CN(C(=O)c3ccc4nc(-c5ccc(Cl)cc5)oc4c3)C2)C1)c1nccs1 [Cpd 33, N-(1′-{[2-(4-Chlorophenyl)-1,3-benzoxazol-6-yl]carbonyl}-1,3′-biazetidin-3-yl)-1,3-thiazole-2-carboxamide]"
6,476,"CN(C(=O)c1nccs1)C1CN(C2CN(C(=O)c3cc4ccc(C(F)(F)F)cc4s3)C2)C1 [Cpd 37, N-Methyl-N-(1′-{[6-(trifluoromethyl)-1-benzothiophen-2-yl]carbonyl}-1,3′-biazetidin-3-yl)-1,3-thiazole-2-carboxamide]"
